Experimental data: patent US20250152585A1, “PHARMACEUTICAL COMPOUND” (Duke Street Bio Limited, priority 2022, published 2025)
Where two headings read alike, the source gives them in different places.

Experiments:
[1] = molecular target: T1, full length N-terminally FLAG-tagged PARP1 (Homo sapiens, UniProt P09874); assay: PARP1 biochemical DELFIA assay (auto-PARylation); design: recombinant full length human N-terminally FLAG-tagged PARP1
[2] = molecular target: T2, N-terminally FLAG-tagged PARP2 (amino acids 1-583) (Homo sapiens, UniProt Q9UGN5); assay: PARP2 probe displacement HTRF assay; assay type: binding; settings: binned Kd
T2 construct: N-terminally FLAG-tagged PARP2 (amino acids 1-583)
T2 sequence (Q9UGN5 whole entry, the tested form may be a part): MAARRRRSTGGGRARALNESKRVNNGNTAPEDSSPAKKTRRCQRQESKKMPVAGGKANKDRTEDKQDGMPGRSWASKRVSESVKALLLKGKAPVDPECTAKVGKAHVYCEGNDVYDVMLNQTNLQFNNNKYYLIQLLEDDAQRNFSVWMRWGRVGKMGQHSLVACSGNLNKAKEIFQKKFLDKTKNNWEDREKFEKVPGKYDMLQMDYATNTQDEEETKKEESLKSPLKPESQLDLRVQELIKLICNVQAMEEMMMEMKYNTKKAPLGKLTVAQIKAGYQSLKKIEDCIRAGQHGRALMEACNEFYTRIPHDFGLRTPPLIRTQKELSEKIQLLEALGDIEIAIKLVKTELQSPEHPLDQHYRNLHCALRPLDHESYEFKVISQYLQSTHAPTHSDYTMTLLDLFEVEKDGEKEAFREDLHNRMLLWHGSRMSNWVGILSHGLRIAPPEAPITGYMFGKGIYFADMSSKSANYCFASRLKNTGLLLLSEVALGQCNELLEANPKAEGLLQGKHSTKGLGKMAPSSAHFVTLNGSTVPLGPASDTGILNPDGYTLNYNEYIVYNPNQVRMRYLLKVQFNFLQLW
Procedure: Data analysis was performed identical as for PARP1.

[3] = molecular target: T1, full length N-terminally FLAG-tagged PARP1; assay: PARP1 probe displacement HTRF assay; settings: for Selectivity: PARP1 over PARP2, ratio Kd (PARP2)/Kd (PARP1); for Kd: binned Kd
[4] = binned IC50, PARP1 biochemical DELFIA assay
[5] = read-out: PARP1 HTRF, PARP1 probe displacement HTRF
[6] = binned IC50, biochemical auto-PARylation assay
[7] = read-out: PARP1 HTRF, probe displacement HTRF
[8] = PARP1 HTRF, PARP1 probe displacement HTRF
[9] = PARP1 HTRF, probe displacement HTRF

T1 sequence (P09874 whole entry, the tested form may be a part): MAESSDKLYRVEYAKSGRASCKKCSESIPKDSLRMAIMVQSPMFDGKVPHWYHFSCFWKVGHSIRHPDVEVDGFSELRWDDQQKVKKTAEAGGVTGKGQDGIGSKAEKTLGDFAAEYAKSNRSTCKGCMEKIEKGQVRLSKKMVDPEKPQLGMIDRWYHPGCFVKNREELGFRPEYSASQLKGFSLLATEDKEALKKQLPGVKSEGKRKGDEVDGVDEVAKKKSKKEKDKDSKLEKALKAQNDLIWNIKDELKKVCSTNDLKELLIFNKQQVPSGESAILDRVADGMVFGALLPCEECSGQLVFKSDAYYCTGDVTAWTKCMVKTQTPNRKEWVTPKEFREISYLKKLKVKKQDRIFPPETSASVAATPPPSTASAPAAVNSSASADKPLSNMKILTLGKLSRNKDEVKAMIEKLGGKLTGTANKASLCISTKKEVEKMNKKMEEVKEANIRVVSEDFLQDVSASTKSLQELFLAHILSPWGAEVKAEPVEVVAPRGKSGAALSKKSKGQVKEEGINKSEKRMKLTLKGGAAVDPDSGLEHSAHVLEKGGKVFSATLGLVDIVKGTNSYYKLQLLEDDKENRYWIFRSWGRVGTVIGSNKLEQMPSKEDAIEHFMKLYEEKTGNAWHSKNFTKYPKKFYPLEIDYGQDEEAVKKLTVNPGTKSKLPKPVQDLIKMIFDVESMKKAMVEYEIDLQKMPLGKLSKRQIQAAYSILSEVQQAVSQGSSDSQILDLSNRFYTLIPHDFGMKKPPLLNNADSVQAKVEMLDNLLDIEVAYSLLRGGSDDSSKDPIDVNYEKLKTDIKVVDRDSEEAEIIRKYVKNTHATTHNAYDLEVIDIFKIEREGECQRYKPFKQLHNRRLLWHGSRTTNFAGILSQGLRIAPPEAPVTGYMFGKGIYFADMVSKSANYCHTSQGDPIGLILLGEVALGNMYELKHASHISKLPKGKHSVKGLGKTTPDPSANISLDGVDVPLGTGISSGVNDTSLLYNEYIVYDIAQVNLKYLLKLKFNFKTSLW

Compound | IC50 [1, 4] [nM] | Kd ([2]; PARP2 probe displacement HTRF) [nM] | Kd [3, 5] [nM] | IC50 [1, 6] [nM] | Kd ([2]; probe displacement HTRF) [nM] | Kd [3, 7] [nM] | Kd [3, 8] [nM] | Selectivity ([3]; probe displacement HTRF) | Kd [3, 9] [nM]
CNC(=O)c1ccc(N2CCC(N3CCC(c4cc5c(Cl)cccc5c(=O)[nH]4)C3)CC2)cn1 (single isomer, unassigned) [Compound 137a] | < 10 | 100 to 1000 | < 10 | – | – | – | – | +++ (+++ indicate a value of at least 100) | –
CNC(=O)c1ccc(N2CCC(N3CCC(c4nc5ccc(F)cc5c(=O)[nH]4)C3)CC2)cn1 (single isomer, unassigned) [Compound 64a] | < 10 | 100 to 1000 | < 10 | – | – | – | – | + (+ indicates a value of 10 to less than 50) | –
CNC(=O)c1ccc(OCCCN2CCCC(c3nc4ccccc4c(=O)[nH]3)C2)cn1 (single isomer, unassigned) [Compound 7a] | 10 to 100 | 100 to 1000 | < 10 | – | – | – | – | +++ (+++ indicate a value of at least 100) | –
O=C(NCC(F)(F)F)c1ccc(N2CCC(N3CCCC(c4nc5ccccc5c(=O)[nH]4)C3)CC2)cn1 (single isomer, unassigned) [Compound 115a] | 100 to 1000 | 1000 to 10000 | 100 to 1000 | – | – | – | – | + (+ indicates a value of 10 to less than 50) | –
CNC(=O)c1ccc(N2CCC(N3CC4(c5nc6ccncc6c(=O)[nH]5)CC3C4)CC2)c(F)n1 [Compound 305] | – | – | – | < 10 | > 10000 | – | – | +++ (+++ indicate a value of at least 100) | < 10
CNC(=O)c1ccc(N2CCC(N3CCCC(c4nc5ccccc5c(=O)[nH]4)C3)CC2)c(Cl)n1 (single isomer, unassigned) [Compound 94a] | 10 to 100 | 1000 to 10000 | 10 to 100 | – | – | – | – | + (+ indicates a value of 10 to less than 50) | –
CNC(=O)c1ccc(OCCN2CCC(c3nc4ccccc4c(=O)[nH]3)CC2)cn1 [Compound 63] | < 10 | 1000 to 10000 | – | – | – | – | 10 to 100 | ++ (++ indicates a value of 50 to less than 100) | –
CNC(=O)c1ccc(N2CC(N3CCCC(c4nc5ccccc5c(=O)[nH]4)C3)C2)cn1 (single isomer, unassigned) [Compound 23b] | 1000 to 10000 | > 10000 | 1000 to 10000 | – | – | – | – | − (− indicates a value of less than 10) | –
CNC(=O)c1ccc(N2CCC(N3CCC(c4nc5ccccc5c(=O)[nH]4)C3)CC2)c(C(F)F)n1 (single isomer, unassigned) [Compound 158b] | 10 to 100 | 1000 to 10000 | 10 to 100 | – | – | – | – | +++ (+++ indicate a value of at least 100) | –
CNC(=O)c1ccc(N2CCC(N3CCC(c4nc5c(c(=O)[nH]4)CCCC5)C3)CC2)cn1 (single isomer, unassigned) [Compound 155b] | < 10 | 100 to 1000 | < 10 | – | – | – | – | +++ (+++ indicate a value of at least 100) | –
CNC(=O)c1ccc(N2CCC(N3CCCC(c4ccc(CC(F)(F)F)c(=O)[nH]4)C3)CC2)cn1 (single isomer, unassigned) [Compound 169a] | 1000 to 10000 | > 10000 | > 10000 | – | – | – | – | − (− indicates a value of less than 10) | –
CNC(=O)c1ccc(N2CCC(N3CCCC(c4nc5ccccc5c(=O)[nH]4)C3)CC2)c(C)n1 (single isomer, unassigned) [Compound 131b] | < 10 | > 10000 | < 10 | – | – | – | – | +++ (+++ indicate a value of at least 100) | –
CNC(=O)c1ccc(N2CCC(N3CCCC(c4nc5ccncc5c(=O)[nH]4)C3)CC2)cn1 (single isomer, unassigned) [Compound 93b] | 1000 to 10000 | > 10000 | 1000 to 10000 | – | – | – | – | − (− indicates a value of less than 10) | –
CNC(=O)c1ccc(N2CCC(N3CCC(c4nc5ccccc5c(=O)[nH]4)C3)CC2)cn1 (single isomer, unassigned) [Compound 10a, N-methyl-5-(4-(3-(4-oxo-3,4-dihydroquinazolin-2-yl)pyrrolidin-1-yl)piperidin-1-yl)picolinamide] | 10 to 100 | 100 to 1000 | – | – | – | – | < 10 | +++ (+++ indicate a value of at least 100) | –

Continued, in another order:

IC50 [1, 4] [nM] | Kd ([2]; PARP2 probe displacement HTRF) [nM] | Kd [3, 5] [nM] | IC50 [1, 6] [nM] | Kd ([2]; probe displacement HTRF) [nM] | Kd [3, 7] [nM] | Kd [3, 8] [nM] | Compound | Selectivity ([3]; probe displacement HTRF) | Kd [3, 9] [nM]
< 10 | 100 to 1000 | < 10 | – | – | – | – | CNC(=O)c1ccc(N2CCC(N3CCCC(c4nc5sc(C)c(C)c5c(=O)[nH]4)C3)CC2)cn1 (single isomer, unassigned) [Compound 199a] | +++ (+++ indicate a value of at least 100) | –
– | – | – | 10 to 100 | 100 to 1000 | 10 to 100 | – | CS(=O)(=O)NC(=O)c1ccc(N2CCC(N3CCC(c4cc5ccccc5c(=O)[nH]4)C3)CC2)cn1 (racemic) [Compound 414rac] | ++ (++ indicates a value of 50 to less than 100) | –
< 10 | 10 to 100 | – | – | – | – | < 10 | CNC(=O)c1ccc(N2CCC(N3CCC(c4cc5[nH]nc(C(F)(F)F)c5c(=O)[nH]4)C3)CC2)cn1 (single isomer, unassigned) [Compound 194b, N-methyl-5-(4-(3-(4-oxo-3-(trifluoromethyl)-4,5-dihydro-1H-pyrazolo[4,3-c]pyridin-6-yl)pyrrolidin-1-yl)piperidin-1-yl)picolinamide] | + (+ indicates a value of 10 to less than 50) | –
– | – | – | 100 to 1000 | 1000 to 10000 | 100 to 1000 | – | CNC(=O)c1cc(C(F)(F)F)c(N2CCC(N3CCC(c4cc5cccc(F)c5c(=O)[nH]4)C3)CC2)cn1 (single isomer, unassigned) [Compound 308a] | + (+ indicates a value of 10 to less than 50) | –
– | – | – | 10 to 100 | > 10000 | 10 to 100 | – | CNC(=O)c1ccc(N2CCC(N3CC4(c5nc6ccccc6c(=O)[nH]5)CCC3C4)CC2)cn1 (single isomer, unassigned) [Compound 245b] | +++ (+++ indicate a value of at least 100) | –
– | – | – | 10 to 100 | > 10000 | < 10 | – | CCc1ccc(C2(F)CCN(C3CCN(c4ccc(C(=O)NC)nc4F)CC3)C2)[nH]c1=O (racemic) [Compound 415rac] | +++ (+++ indicate a value of at least 100) | –
– | – | – | 10 to 100 | 100 to 1000 | 10 to 100 | – | O=c1[nH]c(C2CCN(C3CCN(c4nc5ccccc5[nH]4)CC3)C2)cc2ccccc12 (racemic) [Compound 297rac] | − (− indicates a value of less than 10) | –
– | – | – | 100 to 1000 | 1000 to 10000 | 100 to 1000 | – | CS(=O)(=O)Nc1ccc(N2CCC(N3CCC(c4cc5ccccc5c(=O)[nH]4)C3)CC2)cn1 (single isomer, unassigned) [Compound 252a] | − (− indicates a value of less than 10) | –
– | – | – | 10 to 100 | 1000 to 10000 | 100 to 1000 | – | CCc1ccc(C2CCN(C3CCN(c4ccc(C#N)cc4)CC3)C2)[nH]c1=O (single isomer, unassigned) [Compound 317a] | − (− indicates a value of less than 10) | –
– | – | – | < 10 | 100 to 1000 | < 10 | – | O=C(NC1CC1)c1ccc(N2CCC(N3CCC(c4cc5cccc(F)c5c(=O)[nH]4)C3)CC2)cn1 (single isomer, unassigned) [Compound 339b] | +++ (+++ indicate a value of at least 100) | –
– | – | – | 100 to 1000 | > 10000 | 100 to 1000 | – | CNC(=O)c1ccc(N2CCC(N3CCC(c4nc5c(c(=O)[nH]4)CN(C)C5)C3)CC2)cn1 (racemic) [Compound 294rac] | − (− indicates a value of less than 10) | –
– | – | – | 100 to 1000 | > 10000 | 100 to 1000 | – | CNC(=O)c1ccc(N2CCC(N3CCC(c4nc5c(c(=O)[nH]4)CCC5)C3)CC2)cn1 (single isomer, unassigned) [Compound 283a] | + (+ indicates a value of 10 to less than 50) | –
– | – | – | < 10 | 1000 to 10000 | < 10 | – | CCc1cc(C)c(C2CCN(C3CCN(c4ccc(C(=O)NC)nc4)CC3)C2)[nH]c1=O (single isomer, unassigned) [Compound 363b] | +++ (+++ indicate a value of at least 100) | –
– | – | – | < 10 | 1000 to 10000 | < 10 | – | CNC(=O)c1ccc(N2CCC(N3CCC(c4cc5c(c(=O)[nH]4)CCC(=O)N5C)C3)CC2)cn1 (racemic) [Compound 325rac] | +++ (+++ indicate a value of at least 100) | –
– | – | – | 10 to 100 | > 10000 | 10 to 100 | – | CCc1ccc(C2CCN(C3CCN(c4cnc(C(=O)NC)nc4C(F)(F)F)CC3)C2)[nH]c1=O (racemic) [Compound 278rac] | +++ (+++ indicate a value of at least 100) | –
– | – | – | < 10 | 1000 to 10000 | – | – | CNC(=O)c1ccc(N2CCC(N3CC4(c5nc6ncccc6c(=O)[nH]5)CC3C4)CC2)cn1 [Compound 311] | +++ (+++ indicate a value of at least 100) | < 10
< 10 | 100 to 1000 | < 10 | – | – | – | – | CNC(=O)c1ccc(N2CCC(N3CCC(c4cc5c(F)cc(F)cc5c(=O)[nH]4)C3)CC2)cn1 (single isomer, unassigned) [Compound 186a] | +++ (+++ indicate a value of at least 100) | –
– | – | – | 100 to 1000 | 1000 to 10000 | 100 to 1000 | – | CCc1ccc(C2CCN(C3CCN(c4ccc(C#N)nc4)CC3)C2)[nH]c1=O (single isomer, unassigned) [Compound 326a] | + (+ indicates a value of 10 to less than 50) | –
